A value given as a limit tells only on which side of the number the result lay.

The assay concerns the target T1, human PDE2A1 (Homo sapiens, UniProt O00408).
T1 construct: GST; purchased BPS Bioscience (San Diego, Calif.) 60020; host or cells: insect cells
Description: IMAP FP PDE assay, human PDE2A1. Format: biochemical. As to conditions: Lab B; read-out: Human PDE2 Ki (nM) Lab B. The protocol: Selectivity for PDE2, as compared to other PDE families, was assessed using the IMAP® technology. Human PDE10A2 enzyme was prepared from cytosolic fractions of transiently transfected HEK cells. All other PDE's were GST Tag human enzyme expressed in insect cells and were obtained from BPS Bioscience (San Diego, Calif.): PDE1A (Cat#60010), human PDE2A1 (Cat#60020), PDE3A (Cat#60030), PDE4A1A (Cat#60040), PDE5A1 (Cat#60050), PDE6C (Cat#60060), PDE7A (Cat#60070), PDE8A1 (Cat#60080), PDE9A2 (Cat#60090), PDE11A4 (Cat#60110).
Assays for PDE 1 through 11 were performed in parallel at room temperature in 384-well microtiter plates with an incubation volume of 20.2 μL. Solutions of test compounds were prepared in DMSO and serially diluted with DMSO to yield 30 μL of each of ten solutions differing by 3-fold in concentration, at 32 serial dilutions per plate. […] A Labcyte POD 810 (Labcyte, Sunnyvale, Calif.) was used to dispense 200 nL from each well of the titration plate to make eleven copies of the assay plate for each titration, one copy for each PDE enzyme. A solution of each enzyme (dilution from aliquots, sufficient to produce 20% substrate conversion) and a separate solution of FAM-labeled cAMP or FAM-labeled cGMP from Molecular Devices (Sunnyvale, Calif., product # R7506 or cGMP#R7508), at a final concentration of 50 nM were made in the assay buffer (10 mM Tris HCl, pH 7.2, 10 mM MgCl2, 0.05% NaN3 0.01% Tween-20, and 1 mM DTT). Note that the substrate for PDE2 is 50 nM FAM cAMP containing 1000 nM of cGMP. The enzyme and the substrate were then added to the assay plates in two consecutive additions of 10 μL and then shaken to mix. The reaction was allowed to proceed at room temperature for 60 minutes. A binding solution was then made from the kit components, comprised of 80% Solution A, 20% Solution B and binding reagent at a volume of 1/600 the total binding solution. The enzymatic reaction was stopped by addition of 60 μL of the binding solution to each well of the assay plate. The plates were sealed and shaken for 10 seconds. The plates were incubated at room temperature for one hour, then the parallel and perpendicular fluorescence was measured using a Tecan Genios Pro plate reader (Tecan, Switzerland). The apparent inhibition constants for the compounds against all 11 PDE's was determined from the parallel and perpendicular fluorescent readings as described for PDE10 FP assay using the following apparent KM values for each enzyme and substrate combination: PDE1A (FAM cGMP) 70 nM, human PDE2A1 (FAM cAMP) 10,000 nM, PDE3A (FAM cAMP) 50 nM, PDE4A1A (FAM cAMP) 1500 nM, PDE5A1 (FAM cGMP) 400 nM, PDE6C (FAM cGMP) 700 nM, PDE7A (FAM cAMP) 150 nM, PDE8A1 (FAM cAMP) 50 nM, PDE9A2 (FAM cGMP) 60 nM, PDE10A2 (FAM cAMP) 150 nM, PDE11A4 (FAM cAMP) 1000 nM. The intrinsic PDE2 inhibitory activity of a compound which may be used in accordance with the present invention may be determined by these assays.

T1 sequence (O00408 1-920 isoform O00408-2): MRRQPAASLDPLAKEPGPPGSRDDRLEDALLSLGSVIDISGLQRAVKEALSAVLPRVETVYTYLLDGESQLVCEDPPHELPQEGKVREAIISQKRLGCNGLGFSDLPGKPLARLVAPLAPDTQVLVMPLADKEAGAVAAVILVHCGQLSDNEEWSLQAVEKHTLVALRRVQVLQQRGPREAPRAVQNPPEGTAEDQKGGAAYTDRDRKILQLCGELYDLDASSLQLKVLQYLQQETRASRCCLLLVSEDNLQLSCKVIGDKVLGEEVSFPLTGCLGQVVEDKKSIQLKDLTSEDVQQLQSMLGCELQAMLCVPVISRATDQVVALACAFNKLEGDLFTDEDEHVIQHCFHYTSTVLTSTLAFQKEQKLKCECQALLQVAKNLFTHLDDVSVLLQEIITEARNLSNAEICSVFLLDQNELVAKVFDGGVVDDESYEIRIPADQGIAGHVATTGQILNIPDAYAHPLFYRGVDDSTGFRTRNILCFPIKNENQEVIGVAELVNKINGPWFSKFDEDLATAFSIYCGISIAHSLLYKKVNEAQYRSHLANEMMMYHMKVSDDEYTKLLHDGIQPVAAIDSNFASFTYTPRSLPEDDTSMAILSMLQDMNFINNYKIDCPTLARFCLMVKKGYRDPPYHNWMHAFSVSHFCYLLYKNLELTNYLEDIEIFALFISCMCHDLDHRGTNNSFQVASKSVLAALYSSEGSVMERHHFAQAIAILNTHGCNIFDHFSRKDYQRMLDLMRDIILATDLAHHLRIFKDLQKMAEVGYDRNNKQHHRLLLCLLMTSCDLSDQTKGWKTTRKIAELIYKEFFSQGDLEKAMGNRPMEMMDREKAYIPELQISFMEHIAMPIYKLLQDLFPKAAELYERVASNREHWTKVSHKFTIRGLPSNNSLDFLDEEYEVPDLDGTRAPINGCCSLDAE

The Ki is a measure of affinity in units of concentration, obtained from inhibition or displacement. As for `Cc1nc2c(c(CF)nn2C(c2ccc(OC(F)(F)F)c(F)c2)C2CC2)c(=O)[nH]1` (single isomer, unassigned) [Example 229, (S)- or (R)-1-(Cyclopropyl(3-fluoro-4-(trifluoromethoxy)phenyl)methyl)-3-(fluoromethyl)-6-methyl-1,5-dihydro-4H-pyrazolo[3,4-d]pyrimidin-4-one], the Ki was found to be 2 nM. The value for `Cc1nc2c(c(C(F)F)nn2C(C)c2ccc(C(F)(F)F)cc2Cl)c(=O)[nH]1` (single isomer, unassigned) [Example 184, (S)- or (R)-1-(1-(2-Chloro-4-(trifluoro-methyl)phenyl)-ethyl)-3-(difluoromethyl)-6-methyl-1H-pyrazolo[3,4-d]pyrimidin-4(5H)-one] was 1.6 nM; that for `CC(=O)c1ccc(C(C)n2nc(CO)c3c(=O)[nH]c(C)nc32)cc1` (single isomer, unassigned) [Example 291] was 104 nM; that for `Cc1nc2c(c(C(F)F)nn2C(C)c2ccc(SC(F)(F)F)cc2)c(=O)[nH]1` (single isomer, unassigned) [Example 179, (R)- or (S)-3-(Difluoromethyl)-6-methyl-1-(1-(4-(trifluoromethylthio)phenyl)ethyl)-1H-pyrazolo[3,4-d] pyrimidin-4(5H)-one] was 28 nM. The value for `Cc1nc2c(c(CC(O)C(F)(F)F)nn2C(C)c2ccc(C(F)(F)F)cc2)c(=O)[nH]1` (single isomer, unassigned) [Example 242] was 434 nM; that for `Cc1nc2c(c(CC(F)(F)F)nn2C(C)c2ccc(OC(F)(F)F)cc2)c(=O)[nH]1` (single isomer, unassigned) [Example 67, (S)- or (R)-6-Methyl-3-(2,2,2-trifluoroethyl)-1-(1-(4-(trifluoromethoxy)phenyl)ethyl)-1H-pyrazolo[3,4-d]pyrimidin-4(5H)-one] was 6.7 nM. With `Cc1nc2c(c(CO)nn2C(C)c2ccc(CC(F)(F)F)cc2)c(=O)[nH]1` (single isomer, unassigned) [Example 123, (S) or (R)-3-(Hydroxymethyl)-6-methyl-1-(1-(4-(2,2,2-trifluoroethyl)phenyl)ethyl)-1H-pyrazolo[3,4-d]pyrimidin-4(5H)-one], the Ki was 2.6 nM. The value for `Cc1nc2c(c(CO)nn2C(C)c2ccc(OC(F)(F)F)cc2F)c(=O)[nH]1` (single isomer, unassigned) [Example 104, (R)- or (S)-1-(1-(2-Fluoro-4-(trifluoromethoxy)phenyl)ethyl)-3-(hydroxymethyl)-6-methyl-1H-pyrazolo[3,4-d]pyrimidin-4(5H)-one] was 162 nM; that for `COc1cccc(Cc2nc3c(c(C#N)nn3C(C)c3ccc(C(F)(F)F)cc3)c(=O)[nH]2)c1` (single isomer, unassigned) [Example 348] was 4.7 nM. As for `Cc1nc2c(c(CO)nn2C(C)c2ccc(Cl)s2)c(=O)[nH]1` (single isomer, unassigned) [Example 153, (R)- or (S)-1-(1-(5-Chlorothiophen-2-yl)ethyl)-3-(hydroxymethyl)-6-methyl-1H-pyrazolo[3,4-d]pyrimidin-4(5H)-one], the inhibition constant (Ki) was > 2960 nM. For `CCCc1nc2c(c(CO)nn2C(C)c2ccc(C(F)(F)F)cc2)c(=O)[nH]1` (single isomer, unassigned) [Example 304, (S)- or (R)-3-(Hydroxymethyl)-6-propyl-1-(1-(4-(trifluoromethyl)phenyl)ethyl)-1,5-dihydro-4H-pyrazolo[3,4-d]pyrimidin-4-one], the Ki amounted to 263 nM. With `Cc1nc2c(c(CF)nn2C(C)c2ccc(CC(F)(F)F)cc2)c(=O)[nH]1` (single isomer, unassigned) [Example 210, (R)- or (S)-3-(Fluoromethyl)-6-methyl-1-(1-(4-(2,2,2-trifluoroethyl)phenyl)ethyl)-1H-pyrazolo[3,4-d]pyrimidin-4(5H)-one] the figure was 75 nM. As to `Cc1nc2c(c(C(F)F)nn2C(C)c2ccc(C(F)(F)F)cc2Cl)c(=O)[nH]1` (single isomer, unassigned) [Example 183, (R)- or (S)-1-(1-(2-Chloro-4-(trifluoromethyl)phenyl)ethyl)-3-(difluoromethyl)-6-methyl-1H-pyrazolo[3,4-d]pyrimidin-4(5H)-one], the Ki turned out to be 547 nM. The value for `Cc1nc2c(c(CO)nn2C(C)c2ccc(SC(F)(F)F)cc2)c(=O)[nH]1` (single isomer, unassigned) [Example 22, (R)- or (S)-3-(Hydroxymethyl)-6-methyl-1-(1-(4-(trifluoromethylthio)phenyl)ethyl)-1H-pyrazolo[3,4-d]pyrimidin-4(5H)-one] was 125 nM; that for `Cc1nc2c(c(CC(C)(C)O)nn2C(C)c2ccc(C(F)(F)F)cc2)c(=O)[nH]1` (stereo not drawn) [Example 247, 3-(2-Hydroxy-2-methylpropyl)-6-methyl-1-(1-(4-(trifluoromethyl)phenyl)ethyl)-1H-pyrazolo[3,4-d]pyrimidin-4(5H)-one] was ~567 nM.

For `Cc1nc2c(c(CO)nn2C2CCc3cc(C(F)(F)F)ccc32)c(=O)[nH]1` (single isomer, unassigned) [Example 103, (S)- or (R)-3-(Hydroxymethyl)-6-methyl-1-(5-(trifluoromethyl)-2,3-dihydro-1H-inden-1-yl)-1H-pyrazolo[3,4-d]pyrimidin-4(5H)-one], the Ki was 19 nM.

For `Cc1nc2c(c(CO)nn2C(C)c2ccc(C(F)(F)C(F)(F)F)cc2)c(=O)[nH]1` (single isomer, unassigned) [Example 98, (R)- or (S)-3-(Hydroxymethyl)-6-methyl-1-(1-(4-(perfluoroethyl)phenyl)ethyl)-1H-pyrazolo[3,4-d]pyrimidin-4(5H)-one], the Ki turned out to be 591 nM. The value for `CC(c1ccc(C(F)(F)F)cc1)n1nc(CO)c2c(=O)[nH]c(C3CC3)nc21` (single isomer, unassigned) [Example 300, (S)- or (R)-6-Cyclopropyl-3-(hydroxymethyl)-1-{1-[4-(trifluoromethyl)phenyl]ethyl}-1,5-dihydro-4H-pyrazolo[3,4-d]pyrimidin-4-one] was 2.8 nM; that for `Cc1nc2c(c(CO)nn2C(C)c2ccc(C(F)(F)F)cc2I)c(=O)[nH]1` (single isomer, unassigned) [Example 140, (R)- or (S)-3-(Hydroxymethyl)-1-(1-(2-iodo-4-(trifluoromethyl-)phenyl)ethyl)-6-methyl-1,5-dihydro-4H-pyrazolo[3,4-d]pyrimidin-4-one] was 939 nM.

For `Cc1nc2c(c(C3CCCO3)nn2C(C)c2ccc(C(F)(F)F)cc2)c(=O)[nH]1` (single isomer, unassigned) [Example 73, (S, S)- or (S, R)- or (R, R)- or (R, S)-6-Methyl-3-(-tetrahydrofuran-2-yl)-1-(-l-(4-(trifluoromethyl)phenyl)ethyl)-1H-pyrazolo[3,4-d]pyrimidin-4(5H)-one], the Ki was determined as 423 nM. Regarding `Cc1nc2c(c(CC(O)C(F)(F)F)nn2C(C)c2ccc(C(F)(F)F)cc2)c(=O)[nH]1` (single isomer, unassigned) [Example 241], the Ki turned out to be 610 nM. The value for `Cc1nc2c(c([C@H](C)CO)nn2[C@@H](C)c2ccc(C(F)(F)F)cc2)c(=O)[nH]1` (single isomer, unassigned) [Example 321] was 33 nM; that for `Cc1nc2c(c(C(F)F)nn2C(C)c2ccc(C(F)(F)C(F)(F)F)cc2)c(=O)[nH]1` (stereo not drawn) [Example 165, 3-(Difluoromethyl)-6-methyl-1-(1-(4-(perfluoroethyl)phenyl)ethyl)-1H-pyrazolo[3,4-d]pyrimidin-4(5H)-one] was 6.3 nM; that for `Cc1nc2c(c(CO)nn2C(C)c2ccc(OC(F)F)c(F)c2)c(=O)[nH]1` (single isomer, unassigned) [Example 112, (R)- or (S)-1-(1-(4-(Difluoromethoxy)-3-fluorophenyl)ethyl)-3-(hydroxymethyl)-6-methyl-1H-pyrazolo[3,4-d]pyrimidin-4(5H)-one] was 88 nM.

The values above are taken from US10160762B2, “6-alkyl dihydropyrazolopyrimidinone compounds as PDE2 inhibitors” (Merck Sharp & Dohme Corp., priority 2015, dated 2018).
